Experimental data reported in ChEMBL document CHEMBL5724914, “Linking interpersonal differences in gut microbiota composition and drug biotransformation activity” (2024).

Experiment: (§1) The drug is tested on Z-001 corresponding to mouse gut metagenome with ENA study accession number: PRJEB37062 and ENA sample accession number: ERS12561801 for biotransformation under anaerobic condition. The drug concentrations were measured over 9 timepoints collected between 0 and 24 hours of incubation by liquid-chromatography-coupled mass spectrometry (LC–MS)
Conditions: 2 µM
Further: call rule not given here.

| Bacterial Biotransformation | SMILES |
| --- | --- |
| Compound metabolized | COc1ccc2c(c1OC)C(=O)O[C@@H]2[C@H]1c2c(cc3c(c2OC)OCO3)CCN1C [NOSCAPINE] |
| Compound NOT metabolized | Br.CN(C)CCCC1(c2ccc(F)cc2)OCc2cc(C#N)ccc21 (stereo not given) [CITALOPRAM HYDROBROMIDE] |

Experiment: as §1, with “Z-002” for “Z-001”, “rabbit” for “mouse”, “ERS12561802” for “ERS12561801”
Conditions: 2 µM

| Bacterial Biotransformation | SMILES |
| --- | --- |
| Compound metabolized | COc1ccc2c(c1OC)C(=O)O[C@@H]2[C@H]1c2c(cc3c(c2OC)OCO3)CCN1C [NOSCAPINE] |
| Compound metabolized | Br.CN(C)CCCC1(c2ccc(F)cc2)OCc2cc(C#N)ccc21 (stereo not given) [CITALOPRAM HYDROBROMIDE] |

Conditions: human gut metagenome, 24 h, 2 µM

| Bacterial Biotransformation | SMILES |
| --- | --- |
| Compound NOT metabolized | COc1ccc2c(c1OC)C(=O)O[C@@H]2[C@H]1c2c(cc3c(c2OC)OCO3)CCN1C [NOSCAPINE] |
| Compound metabolized | Br.CN(C)CCCC1(c2ccc(F)cc2)OCc2cc(C#N)ccc21 (stereo not given) [CITALOPRAM HYDROBROMIDE] |

Experiment: as §1, with “WLS-370” for “Z-001”, “human” for “mouse”, “ERS12561793” for “ERS12561801”
Conditions: 2 µM

| Bacterial Biotransformation | SMILES |
| --- | --- |
| Compound NOT metabolized | COc1ccc2c(c1OC)C(=O)O[C@@H]2[C@H]1c2c(cc3c(c2OC)OCO3)CCN1C [NOSCAPINE] |
| Compound metabolized | Br.CN(C)CCCC1(c2ccc(F)cc2)OCc2cc(C#N)ccc21 (stereo not given) [CITALOPRAM HYDROBROMIDE] |

Conditions: human gut metagenome, 24 h, 2 µM
Remark: another data set of the same source

| Bacterial Biotransformation | SMILES |
| --- | --- |
| Compound metabolized | COc1ccc2c(c1OC)C(=O)O[C@@H]2[C@H]1c2c(cc3c(c2OC)OCO3)CCN1C [NOSCAPINE] |
| Compound metabolized | Br.CN(C)CCCC1(c2ccc(F)cc2)OCc2cc(C#N)ccc21 (stereo not given) [CITALOPRAM HYDROBROMIDE] |

Conditions: human gut metagenome, 24 h, 2 µM
Remark: another data set of the same source

| Bacterial Biotransformation | SMILES |
| --- | --- |
| Compound metabolized | COc1ccc2c(c1OC)C(=O)O[C@@H]2[C@H]1c2c(cc3c(c2OC)OCO3)CCN1C [NOSCAPINE] |
| Compound metabolized | Br.CN(C)CCCC1(c2ccc(F)cc2)OCc2cc(C#N)ccc21 (stereo not given) [CITALOPRAM HYDROBROMIDE] |

Conditions: human gut metagenome, 24 h, 2 µM
Remark: another data set of the same source

| Bacterial Biotransformation | SMILES |
| --- | --- |
| Compound NOT metabolized | COc1ccc2c(c1OC)C(=O)O[C@@H]2[C@H]1c2c(cc3c(c2OC)OCO3)CCN1C [NOSCAPINE] |
| Compound metabolized | Br.CN(C)CCCC1(c2ccc(F)cc2)OCc2cc(C#N)ccc21 (stereo not given) [CITALOPRAM HYDROBROMIDE] |

Conditions: human gut metagenome, 24 h, 2 µM
Remark: another data set of the same source

| Bacterial Biotransformation | SMILES |
| --- | --- |
| Compound NOT metabolized | COc1ccc2c(c1OC)C(=O)O[C@@H]2[C@H]1c2c(cc3c(c2OC)OCO3)CCN1C [NOSCAPINE] |
| Compound NOT metabolized | Br.CN(C)CCCC1(c2ccc(F)cc2)OCc2cc(C#N)ccc21 (stereo not given) [CITALOPRAM HYDROBROMIDE] |

Experiment: as §1, with “Z-020” for “Z-001”, “rabbit” for “mouse”, “ERS12561819” for “ERS12561801”
Conditions: 2 µM

| Bacterial Biotransformation | SMILES |
| --- | --- |
| Compound metabolized | COc1ccc2c(c1OC)C(=O)O[C@@H]2[C@H]1c2c(cc3c(c2OC)OCO3)CCN1C [NOSCAPINE] |
| Compound NOT metabolized | Br.CN(C)CCCC1(c2ccc(F)cc2)OCc2cc(C#N)ccc21 (stereo not given) [CITALOPRAM HYDROBROMIDE] |

Experiment: as §1, with “Z-030” for “Z-001”, “ERS12561829” for “ERS12561801”
Conditions: 2 µM

| Bacterial Biotransformation | SMILES |
| --- | --- |
| Compound NOT metabolized | COc1ccc2c(c1OC)C(=O)O[C@@H]2[C@H]1c2c(cc3c(c2OC)OCO3)CCN1C [NOSCAPINE] |
| Compound NOT metabolized | Br.CN(C)CCCC1(c2ccc(F)cc2)OCc2cc(C#N)ccc21 (stereo not given) [CITALOPRAM HYDROBROMIDE] |

Experiment: as §1, with “Z-026” for “Z-001”, “to” for “to mouse gut”, “ERS12561825” for “ERS12561801”
Conditions: 2 µM

| Bacterial Biotransformation | SMILES |
| --- | --- |
| Compound NOT metabolized | COc1ccc2c(c1OC)C(=O)O[C@@H]2[C@H]1c2c(cc3c(c2OC)OCO3)CCN1C [NOSCAPINE] |
| Compound NOT metabolized | Br.CN(C)CCCC1(c2ccc(F)cc2)OCc2cc(C#N)ccc21 (stereo not given) [CITALOPRAM HYDROBROMIDE] |

Conditions: human gut metagenome, 24 h, 2 µM
Remark: another data set of the same source

| Bacterial Biotransformation | SMILES |
| --- | --- |
| Compound NOT metabolized | COc1ccc2c(c1OC)C(=O)O[C@@H]2[C@H]1c2c(cc3c(c2OC)OCO3)CCN1C [NOSCAPINE] |
| Compound NOT metabolized | Br.CN(C)CCCC1(c2ccc(F)cc2)OCc2cc(C#N)ccc21 (stereo not given) [CITALOPRAM HYDROBROMIDE] |

Experiment: as §1, with “Z-028” for “Z-001”, “ERS12561827” for “ERS12561801”
Conditions: 2 µM

| Bacterial Biotransformation | SMILES |
| --- | --- |
| Compound NOT metabolized | COc1ccc2c(c1OC)C(=O)O[C@@H]2[C@H]1c2c(cc3c(c2OC)OCO3)CCN1C [NOSCAPINE] |
| Compound NOT metabolized | Br.CN(C)CCCC1(c2ccc(F)cc2)OCc2cc(C#N)ccc21 (stereo not given) [CITALOPRAM HYDROBROMIDE] |

Conditions: human gut metagenome, 24 h, 2 µM
Remark: another data set of the same source

| Bacterial Biotransformation | SMILES |
| --- | --- |
| Compound metabolized | COc1ccc2c(c1OC)C(=O)O[C@@H]2[C@H]1c2c(cc3c(c2OC)OCO3)CCN1C [NOSCAPINE] |
| Compound metabolized | Br.CN(C)CCCC1(c2ccc(F)cc2)OCc2cc(C#N)ccc21 (stereo not given) [CITALOPRAM HYDROBROMIDE] |

Experiment: as §1, with “Z-027” for “Z-001”, “to” for “to mouse gut”, “ERS12561826” for “ERS12561801”
Conditions: 2 µM

| Bacterial Biotransformation | SMILES |
| --- | --- |
| Compound NOT metabolized | COc1ccc2c(c1OC)C(=O)O[C@@H]2[C@H]1c2c(cc3c(c2OC)OCO3)CCN1C [NOSCAPINE] |
| Compound NOT metabolized | Br.CN(C)CCCC1(c2ccc(F)cc2)OCc2cc(C#N)ccc21 (stereo not given) [CITALOPRAM HYDROBROMIDE] |

Experiment: as §1, with “WLS-170” for “Z-001”, “human” for “mouse”, “ERS12561762” for “ERS12561801”
Conditions: 2 µM

| Bacterial Biotransformation | SMILES |
| --- | --- |
| Compound metabolized | COc1ccc2c(c1OC)C(=O)O[C@@H]2[C@H]1c2c(cc3c(c2OC)OCO3)CCN1C [NOSCAPINE] |
| Compound metabolized | Br.CN(C)CCCC1(c2ccc(F)cc2)OCc2cc(C#N)ccc21 (stereo not given) [CITALOPRAM HYDROBROMIDE] |

Experiment: as §1, with “Z-010” for “Z-001”, “to” for “to mouse gut”, “ERS12561810” for “ERS12561801”
Conditions: 2 µM

| Bacterial Biotransformation | SMILES |
| --- | --- |
| Compound metabolized | COc1ccc2c(c1OC)C(=O)O[C@@H]2[C@H]1c2c(cc3c(c2OC)OCO3)CCN1C [NOSCAPINE] |
| Compound metabolized | Br.CN(C)CCCC1(c2ccc(F)cc2)OCc2cc(C#N)ccc21 (stereo not given) [CITALOPRAM HYDROBROMIDE] |

Experiment: as §1, with “Z-024” for “Z-001”, “pig” for “mouse”, “ERS12561823” for “ERS12561801”
Conditions: 2 µM

| Bacterial Biotransformation | SMILES |
| --- | --- |
| Compound metabolized | COc1ccc2c(c1OC)C(=O)O[C@@H]2[C@H]1c2c(cc3c(c2OC)OCO3)CCN1C [NOSCAPINE] |
| Compound NOT metabolized | Br.CN(C)CCCC1(c2ccc(F)cc2)OCc2cc(C#N)ccc21 (stereo not given) [CITALOPRAM HYDROBROMIDE] |

Experiment: as §1, with “WLS-090” for “Z-001”, “human” for “mouse”, “ERS12561753” for “ERS12561801”
Conditions: 2 µM

| Bacterial Biotransformation | SMILES |
| --- | --- |
| Compound metabolized | COc1ccc2c(c1OC)C(=O)O[C@@H]2[C@H]1c2c(cc3c(c2OC)OCO3)CCN1C [NOSCAPINE] |
| Compound metabolized | Br.CN(C)CCCC1(c2ccc(F)cc2)OCc2cc(C#N)ccc21 (stereo not given) [CITALOPRAM HYDROBROMIDE] |

Experiment: as §1, with “Z-004” for “Z-001”, “to” for “to mouse gut”, “ERS12561804” for “ERS12561801”
Conditions: 2 µM

| Bacterial Biotransformation | SMILES |
| --- | --- |
| Compound NOT metabolized | COc1ccc2c(c1OC)C(=O)O[C@@H]2[C@H]1c2c(cc3c(c2OC)OCO3)CCN1C [NOSCAPINE] |
| Compound NOT metabolized | Br.CN(C)CCCC1(c2ccc(F)cc2)OCc2cc(C#N)ccc21 (stereo not given) [CITALOPRAM HYDROBROMIDE] |
